Assay results as given in US5958952A, “Substituted phenylamindines, medicaments containing these compounds and process for producing them” (Dr. Karl Thomae GmbH, priority 1995, dated 1999).

Assays:
human thrombocytes = experiment: Inhibiting the binding of ^3 H-BIBU 52 to human thrombocytes; settings: human thrombocytes in plasma; ^3 H-BIBU 52 final concentration 5 nM; ambient temperature, 20 minutes; read-out: ^3 H-BIBU-52-binding test IC50
Description: 1. Inhibiting the Binding of ^3 H-BIBU 52 to Human Thrombocytes:
A suspension of human thrombocytes in plasma is incubated with ^3 H-BIBU 52 [=(3S,5S)-5-[(4'-amidino-4-biphenylyl)oxymethyl]-3-[(carboxy)methyl]-2-pyrrolidinone[3-^3 H-4-biphenylyl]], replacing the ligand ^125 I-fibrinogen known from the literature, (cf. DE-A-4,214.245) and various concentrations of the substance to be tested. The free and bound ligand is separated off by centrifuging and quantitatively determined by scintillation counting. From the results obtained, the inhibition of ^3 H-BIBU 52 binding by the test substance is determined.
In order to do this, donor blood is taken from an anticubital vein and anticoagulated with trisodium citrate (final concentration 13 mM). The blood is centrifuged for 10 minutes at 170×g and the supernatant platelet-rich plasma (PRP) is removed. The residual blood is sharply centrifuged off once more in order to obtain plasma. The PRP is diluted 1:10 with autologous plasma. 750 μl are incubated with 50 μl of physiological saline, 100 μl of test substance solution, 50 μl of ^14 C sucrose (3.700 Bq) and 50 μl of ^3 H-BIBU 52 (final concentration: 5 nM) at ambient temperature for 20 minutes. […] 100 μl of it are measured in order to determine the free ligand. The pellet is dissolved in 500 μl of 0.2N NaOH, 450 μl are mixed with 2 ml of scintillator and 25 μl of 5N HCl and measured. […]

thrombocyte aggregation = experiment: Antithrombotic activity: inhibition of collagen-induced platelet (thrombocyte) aggregation in platelet-rich plasma; assay type: cell-based; settings: Homo sapiens, 10 min, platelet-rich plasma from healthy test subjects, incubated with substance at 37° C. for 10 minutes, 50% change in optical density
Description: 2. Antithrombotic Activity:
The thrombocyte aggregation is measured by the Born and Cross method (J. Physiol. 170, 397 (1964)) in platelet-rich plasma from healthy test subjects. To inhibit clotting, the blood is mixed with 3.14% sodium citrate in a ratio by volume of 1:10.
Collagen-Induced Aggregation
The progress of the decrease in optical density of the platelet suspension is measured photometrically after the addition of the aggregation-triggering substance and recorded. The rate of aggregation is calculated from the angle of inclination of the density curve. The point on the curve at which there is greatest light permeability is used to calculate the optical density.
The quantity of collagen is selected to be as small as possible but still sufficient to produce an irreversible reaction curve. The standard commercial collagen made by Hormonchemie of Munich is used.
Before the collagen is added, the plasma is incubated with the substance at 37° C. for 10 minutes.
From the measurements obtained, an EC50 was determined graphically corresponding to a 50% change in the optical density in terms of inhibiting aggregation.

Structure (SMILES) | IC50 (human thrombocytes) [µM] | EC50 (thrombocyte aggregation) [µM]
N=C(N)c1ccc(NC(=O)CCC2CCN(CC(=O)O)CC2)cc1 [Example 1, 4-[2-[(4-amidinophenyl)aminocarbonyl]ethyl]-1-carboxymethyl-piperidine] | 0.0037 | 0.037
N=C(N)c1ccc(NC(=O)CCN2CCC(CC(=O)O)CC2)cc1 [1(1), 1-[2-[(4-amidinophenyl)aminocarbonyl]ethyl]-4-carboxymethyl-piperidine] | 0.051 | 0.31
